Results taken from ChEMBL document CHEMBL1137066, “Tryptamine-based human beta3-adrenergic receptor agonists. Part 2: SAR of the methylene derivatives” (Bioorg Med Chem Lett, 2004).

Key:
[1] = target: T1, Beta-2 adrenergic receptor (Homo sapiens, UniProt P07550); experiment: Agonistic activity was determined by measuring cAMP accumulation in CHO cells expressing cloned human Beta-2 adrenergic receptor; assay type: functional, cell-based
Target sequence in this assay (P07550 whole entry): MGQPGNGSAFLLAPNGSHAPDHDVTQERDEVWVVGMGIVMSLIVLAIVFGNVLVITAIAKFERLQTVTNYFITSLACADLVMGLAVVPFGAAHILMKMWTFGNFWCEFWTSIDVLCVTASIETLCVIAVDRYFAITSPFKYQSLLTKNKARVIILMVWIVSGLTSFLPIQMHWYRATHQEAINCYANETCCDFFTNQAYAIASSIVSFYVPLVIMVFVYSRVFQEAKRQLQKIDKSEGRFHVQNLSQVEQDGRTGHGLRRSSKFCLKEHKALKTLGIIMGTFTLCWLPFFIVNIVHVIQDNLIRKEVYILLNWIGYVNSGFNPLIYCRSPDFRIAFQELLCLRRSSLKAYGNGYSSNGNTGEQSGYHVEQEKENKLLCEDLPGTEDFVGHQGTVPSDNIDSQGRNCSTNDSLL

[2] = target: T2, Beta-1 adrenergic receptor (Homo sapiens, UniProt P08588); experiment: Agonistic activity was determined by measuring cAMP accumulation in CHO cells expressing cloned human Beta-1 adrenergic receptor; assay type: functional, cell-based
Target sequence in this assay (P08588 whole entry): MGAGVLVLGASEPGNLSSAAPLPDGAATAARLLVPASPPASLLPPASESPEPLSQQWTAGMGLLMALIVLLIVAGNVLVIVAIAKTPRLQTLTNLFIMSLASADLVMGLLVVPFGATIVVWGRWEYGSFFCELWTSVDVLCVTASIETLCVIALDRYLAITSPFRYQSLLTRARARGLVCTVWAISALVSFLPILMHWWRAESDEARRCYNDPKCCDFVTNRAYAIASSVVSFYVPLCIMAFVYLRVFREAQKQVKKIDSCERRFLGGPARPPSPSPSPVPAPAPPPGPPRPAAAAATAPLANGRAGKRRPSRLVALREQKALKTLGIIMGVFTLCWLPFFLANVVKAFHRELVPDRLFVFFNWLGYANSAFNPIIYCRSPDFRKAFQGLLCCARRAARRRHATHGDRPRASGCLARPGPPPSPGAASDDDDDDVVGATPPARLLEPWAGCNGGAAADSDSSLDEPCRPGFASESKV

[3] = target: T2, Beta-1 adrenergic receptor; experiment: Intrinsic activity expressed as percentage of maximal stimulation with isoproterenol of Beta-1 adrenergic receptor; assay type: functional
Target sequence in this assay (P08588 whole entry, looked up): as the sequence (P08588 whole entry) above

[4] = target: T3, Beta-3 adrenergic receptor (Homo sapiens, UniProt P13945); experiment: Binding inhibition constant was determined by inhibition of [125I]iodocyanopindolol binding to Beta-3 adrenergic receptor
Target sequence in this assay (P13945 whole entry): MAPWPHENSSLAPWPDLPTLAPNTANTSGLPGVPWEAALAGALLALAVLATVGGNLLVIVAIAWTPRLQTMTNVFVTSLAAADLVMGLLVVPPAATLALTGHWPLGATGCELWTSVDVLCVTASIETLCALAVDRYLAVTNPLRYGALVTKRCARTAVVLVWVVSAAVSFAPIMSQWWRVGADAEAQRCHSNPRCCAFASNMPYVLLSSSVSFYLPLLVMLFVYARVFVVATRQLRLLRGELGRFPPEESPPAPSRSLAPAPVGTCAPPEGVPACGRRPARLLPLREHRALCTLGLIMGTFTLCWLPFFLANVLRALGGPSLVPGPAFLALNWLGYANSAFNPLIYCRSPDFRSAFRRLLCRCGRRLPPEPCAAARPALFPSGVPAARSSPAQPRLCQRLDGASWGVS

[5] = target: T3, Beta-3 adrenergic receptor; experiment: Intrinsic activity expressed as percentage of maximal stimulation with isoproterenol of Beta-3 adrenergic receptor; assay type: functional
Target sequence in this assay (P13945 whole entry, looked up): as the sequence (P13945 whole entry) above

[6] = target: T1, Beta-2 adrenergic receptor; experiment: Binding inhibition constant was determined by inhibition of [125I]iodocyanopindolol binding to Beta-2 adrenergic receptor
Target sequence in this assay (P07550 whole entry): as the sequence (P07550 whole entry) above

[7] = target: T3, Beta-3 adrenergic receptor; experiment: Agonistic activity was determined by measuring cAMP accumulation in CHO cells expressing cloned human Beta-3 adrenergic receptor; assay type: functional, cell-based
Target sequence in this assay (P13945 whole entry): as the sequence (P13945 whole entry) above

[8] = target: T2, Beta-1 adrenergic receptor; experiment: Binding inhibition constant was determined by inhibition of [125I]-iodocyanopindolol binding to Beta-1 adrenergic receptor
Target sequence in this assay (P08588 whole entry): as the sequence (P08588 whole entry) above

[9] = target: T1, Beta-2 adrenergic receptor; experiment: (§1) Agonistic activity at human Beta-2 adrenergic receptor at 1000 nM concentration; assay type: functional
Target sequence in this assay (P07550 whole entry, looked up): as the sequence (P07550 whole entry) above

[10] = target: T2, Beta-1 adrenergic receptor; experiment: Agonistic activity at human Beta-1 adrenergic receptor at 1000 nM concentration; assay type: functional
Target sequence in this assay (P08588 whole entry, looked up): as the sequence (P08588 whole entry) above

[11] = target: T1, Beta-2 adrenergic receptor; experiment: Intrinsic activity determined by measuring cAMP accumulation in CHO cells expressing cloned human Beta-2 adrenergic receptor and activity expressed as percentage of maximal stimulation with isoproterenol; assay type: functional, cell-based
Target sequence in this assay (P07550 whole entry, looked up): as the sequence (P07550 whole entry) above

[12] = target: T3, Beta-3 adrenergic receptor; experiment: as §1; assay type: functional
Target sequence in this assay (P13945 whole entry, looked up): as the sequence (P13945 whole entry) above

| Compound | EC50 [1] [nM] | EC50 [2] [nM] | IA [3] [%] | Ki [4] [nM] | IA [5] [%] | Ki [6] [nM] | EC50 [7] [nM] | Ki [8] [nM] | Activity [9] [%] | Activity [10] [%] | Activity [11] [%] | IA [12] [%] |
| --- | --- | --- | --- | --- | --- | --- | --- | --- | --- | --- | --- | --- |
| C[C@H](Cc1c[nH]c2c(OS(C)(=O)=O)cccc12)NC[C@H](O)c1cccc(NS(=O)(=O)c2cccs2)c1 | 18 | 44 | 36 | 4 | 97 | 48 | 0.21 | 66 | – | – | – | – |
| CS(=O)(=O)Oc1cccc2c(CCNC[C@H](O)c3cccc(NS(=O)(=O)c4ccc(N)cc4)c3)c[nH]c12 | – | – | – | – | 85 | – | 8.4 | – | 15 | 5 | – | – |
| CS(=O)(=O)Oc1cccc2c(CCNC[C@H](O)c3cccc(NS(=O)(=O)c4ccc(Br)s4)c3)c[nH]c12 | – | – | – | – | 82 | – | 2.8 | – | 17 | 6 | – | – |
| CS(=O)(=O)Oc1cccc2c(CCNC[C@H](O)c3cccc(NS(=O)(=O)c4cc(Cl)c(Cl)s4)c3)c[nH]c12 | – | – | – | – | 93 | – | 6.7 | – | 18 | 7 | – | – |
| CS(=O)(=O)Oc1cccc2c(CCNC[C@H](O)c3cccc(NS(=O)(=O)c4cccc(F)c4)c3)c[nH]c12 | – | – | – | – | 97 | – | 2.4 | – | 8 | 10 | – | – |
| COc1cccc(S(=O)(=O)Nc2cccc([C@@H](O)CNCCc3c[nH]c4c(OS(C)(=O)=O)cccc34)c2)c1 | – | – | – | – | 97 | – | 0.94 | – | 10 | 11 | – | – |

Results, then the compound that gave them:

| EC50 [1] [nM] | EC50 [2] [nM] | IA [3] [%] | Ki [4] [nM] | IA [5] [%] | Ki [6] [nM] | EC50 [7] [nM] | Ki [8] [nM] | Activity [9] [%] | Activity [10] [%] | Activity [11] [%] | IA [12] [%] | Compound |
| --- | --- | --- | --- | --- | --- | --- | --- | --- | --- | --- | --- | --- |
| – | – | – | – | – | – | 1 | – | – | 11 | 13 | 96 | CS(=O)(=O)Oc1cccc2c(CCNC[C@H](O)c3cccc(NS(=O)(=O)c4cccc(Cl)c4)c3)c[nH]c12 |
| – | – | – | – | 86 | – | 2 | – | 15 | 14 | – | – | CS(=O)(=O)Oc1cccc2c(CCNC[C@H](O)c3cccc(NS(=O)(=O)c4ccccc4)c3)c[nH]c12 |
| – | – | – | – | 77 | – | 25 | – | 9 | 3 | – | – | Cc1cccc2c(CCNC[C@H](O)c3cccc(NS(=O)(=O)c4cccs4)c3)c[nH]c12 |
| – | – | – | – | 49 | – | 48 | – | 24 | 0 | – | – | CS(=O)(=O)Oc1cccc2c(CCNC[C@H](O)c3cccc(NS(=O)(=O)CC(F)(F)F)c3)c[nH]c12 |
| – | – | – | – | 73 | – | 21 | – | 15 | 2 | – | – | O=S(=O)(Nc1cccc([C@@H](O)CNCCc2c[nH]c3ccccc23)c1)c1cccs1 |
| – | – | – | – | 81 | – | 7.6 | – | 32 | 10 | – | – | O=S(=O)(Nc1cccc([C@@H](O)CNCCc2c[nH]c3c(OCc4ccccc4)cccc23)c1)c1cccs1 |
| – | – | – | 2.6 | 105 | 70 | 0.31 | 89 | 6 | 3 | – | – | CS(=O)(=O)Oc1cccc2c(CCNC[C@H](O)c3cccc(NS(=O)(=O)c4cccc(N)c4)c3)c[nH]c12 |
| – | – | – | 33 | 89 | 223 | 1.7 | 230 | 23 | 12 | – | – | CS(=O)(=O)Oc1cccc2c(CCNC[C@H](O)c3cccc(NS(=O)(=O)c4cccs4)c3)c[nH]c12 |
| – | – | – | – | 87 | – | 13 | – | 16 | 6 | – | – | COc1cccc2c(CCNC[C@H](O)c3cccc(NS(=O)(=O)c4cccs4)c3)c[nH]c12 |
| – | – | – | – | 80 | – | 3 | – | 9 | 7 | – | – | CS(=O)(=O)Oc1cccc2c(CCNC[C@H](O)c3cccc(NS(=O)(=O)c4ccccc4N)c3)c[nH]c12 |
